Tested on: KRAS PDC tumor spheroids (HUVEC+MSC), viability
Experiment: Anticancer human tumor 254851-301-R-J1-PDC patient-derived colon carcinoma cell line growth inhibition [KRAS2]
Details: for IC50: curve of first compound; for viability, T/C: stronger effect = lower value
Text: Multicellular complex tumor spheroid response to RAS pathway inhibitors in combination with a targeted agents in patient-derived cell lines with oncogenic KRAS variants from multiple cancer types
A high-throughput screen of multi-cell type tumor spheroids was designed to identify active combinations of targeted small molecules and KRAS pathway inhibitors. Complex spheroids include a stromal component modeled by human endothelial cells (HUVEC) and fibroblasts modeled by human mesenchymal stem cells (MSCs). The concentration ranges selected for each drug and investigational agent were based upon clinically achievable concentrations if the clinical Cmax of the agent was known.
Compounds. The drugs and investigational agents: BI-3406 (NSC825286), BAY-293 (NSC824723), batoprotafib (TNO155; NSC825523), sotorasib (AMG 510; NSC818433), MRTX1257 (NSC819558), elimusertib (BAY 1895344; NSC800525), molibresib (GSK525762; NSC774829), temuterkib (LY3214996; NSC803410), venetoclax (NSC766270), alisertib (NSC759677), olaparib (NSC753686), talazoparib (NSC767125), erdafitinib (NSC781556), ipatasertib (NSC767898), cabozantinib (NSC761068), nintedanib (NSC756659), abemaciclib (NSC768073), docetaxel (NSC628503), trametinib (NSC758246), and sapanisertib (NSC764658) were obtained from the National Cancer Institute (NCI) Developmental Therapeutics Program Chemical Repository. The FDA-approved anticancer drug set is available from the Developmental Therapeutics Program. […] The stock solutions were prepared in dimethyl sulfoxide (DMSO, Sigma-Aldrich, St. Louis, MO, cat. D2650) at 800-fold the tested concentration and stored at -70 degrees C prior to their use. All drugs and investigational agents were tested over a range starting from a high concentration at or near the clinical Cmax and decreasing in half-log increments. If the clinical Cmax for an agent had not been determined, the highest concentration tested was 10 microM.
Cell Culture. All cells were maintained in an incubator at 37 degrees C and 5% CO2 with 95% humidity. The PDC lines were cultured according to standard operating procedures established by the NCI PDMR (https://pdmr.cancer.gov/sops/default.htm). Briefly, all PDCs were thawed and cultured in Matrigel-coated flasks prepared with a working solution of 1X Ham's F-12 nutrient mix, without supplementation (Invitrogen, Waltham, MA, cat. 11765054), 100 U/mL penicillin-streptomycin (Invitrogen, cat. 15140122), and 2.5% Matrigel (Corning Inc., Corning, NY, cat. 354248) for the first three passages. All PDCs were cultured in complete DMEM/F-12 media containing advanced DMEM/F-12 (Invitrogen, cat. 12634028), 4.9% defined fetal bovine serum, heat inactivated (HyClone Laboratories Inc., Logan, UT, cat. SH30070.03HI), 389 ng/mL hydrocortisone (Sigma-Aldrich, cat. H4001), 9.7 ng/mL human EGF recombinant protein (Invitrogen, cat. PHG0313), 23.4 microg/mL adenine (Sigma-Aldrich, cat. A2786), 97.3 U/mL penicillin-streptomycin (Invitrogen, cat. 15140122), 1.9 mM L-glutamine (Invitrogen, cat. 25030081), and 9.7 microM Y-27632 dihydrochloride (Tocris Bioscience, Bristol, United Kingdom, cat. 1254). The PDCs were cultured in complete DMEM/F12 media without 9.7 microM Y-27632 dihydrochloride for at least two passages prior to the screen. The established cell line HOP-62 was cultured in RPMI 1640 medium, HEPES (Invitrogen, cat. 22400105) with 10% defined fetal bovine serum (HyClone Laboratories Inc., cat. SH30070.03) and 2 mM L-glutamine (Invitrogen, cat. 25030081). The pooled donor HUVEC were cultured in endothelial cell growth medium 2 (PromoCell, Heidelberg, Germany, cat. C-22011) and the hMSC were cultured in mesenchymal stem cell growth medium 2 (PromoCell, cat. C-28009). For all experiments, HUVEC and hMSC were used at passages </=5, while the malignant cell lines were used at passages </=15. […]

[1] = second compound 0.1 µM, first compound 0.0316 µM
[2] = second compound 0.1 µM, first compound 0.1 µM
[3] = second compound 0.1 µM, first compound 0.316 µM
[4] = second compound 0.1 µM, first compound 1 µM
[5] = second compound 0.1 µM, first compound 3.16 µM
[6] = second compound 0.1 µM, first compound 10 µM
[7] = second compound 0.316 µM, first compound 0.0316 µM
[8] = second compound 0.316 µM, first compound 0.1 µM
[9] = second compound 0.316 µM, first compound 0.316 µM
[10] = second compound 0.316 µM, first compound 1 µM
[11] = second compound 0.316 µM, first compound 3.16 µM
[12] = second compound 0.316 µM, first compound 10 µM
[13] = second compound 1 µM, first compound 0.0316 µM
[14] = second compound 1 µM, first compound 0.1 µM
[15] = second compound 1 µM, first compound 0.316 µM
[16] = second compound 1 µM, first compound 1 µM
[17] = second compound 1 µM, first compound 3.16 µM
[18] = second compound 1 µM, first compound 10 µM
[19] = second compound 3.16 µM, first compound 0.0316 µM
[20] = second compound 3.16 µM, first compound 0.1 µM
[21] = second compound 3.16 µM, first compound 0.316 µM
[22] = second compound 3.16 µM, first compound 1 µM
[23] = second compound 3.16 µM, first compound 3.16 µM
[24] = second compound 3.16 µM, first compound 10 µM
[25] = second compound 10 µM, first compound 0.0316 µM
[26] = second compound 10 µM, first compound 0.1 µM
[27] = second compound 10 µM, first compound 0.316 µM
[28] = second compound 10 µM, first compound 1 µM
[29] = second compound 10 µM, first compound 3.16 µM
[30] = second compound 10 µM, first compound 10 µM
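Also: spheroids exposed to compounds for seven days before readout.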
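For viability, T/C in this document: 100% = DMSO vehicle control luminescence of the spheroids.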

## O=C(c1cc(Cc2n[nH]c(=O)c3ccccc23)ccc1F)N1CCN(C(=O)C2CC2)CC1 + CNCc1ccccc1-c1csc(C(C)Nc2nc(C)nc3cc(OC)c(OC)cc23)c1
Second compound 0.1 µM
  IC50: > 10 µM
Second compound 0.316 µM
  IC50: > 10 µM
Second compound 1 µM
  IC50: > 10 µM
Second compound 3.16 µM
  IC50: > 10 µM
Second compound 10 µM
  IC50: < 0.0316 µM
[1]
  viability, T/C: 101%
[2]
  viability, T/C: 109%
[3]
  viability, T/C: 104%
[4]
  viability, T/C: 108%
[5]
  viability, T/C: 113%
[6]
  viability, T/C: 105%
[7]
  viability, T/C: 107%
[8]
  viability, T/C: 108%
[9]
  viability, T/C: 107%
[10]
  viability, T/C: 109%
[11]
  viability, T/C: 104%
[12]
  viability, T/C: 105%
[13]
  viability, T/C: 116%
[14]
  viability, T/C: 109%
[15]
  viability, T/C: 103%
[16]
  viability, T/C: 110%
[17]
  viability, T/C: 105%
[18]
  viability, T/C: 103%
[19]
  viability, T/C: 79.6%
[20]
  viability, T/C: 97.1%
[21]
  viability, T/C: 82.4%
[22]
  viability, T/C: 59.3%
[23]
  viability, T/C: 82.3%
[24]
  viability, T/C: 71.6%
[25]
  viability, T/C: 0.19%
[26]
  viability, T/C: 0.29%
[27]
  viability, T/C: 0.18%
[28]
  viability, T/C: 0.17%
[29]
  viability, T/C: 0.17%
[30]
  viability, T/C: 0.22%

## Cn1nccc1Nc1nccc(-c2cc3c(s2)C(C)(C)N(CCN2CCOCC2)C3=O)n1 + CNCc1ccccc1-c1csc(C(C)Nc2nc(C)nc3cc(OC)c(OC)cc23)c1
Second compound 0.1 µM
  IC50: 2.08 µM
Second compound 0.316 µM
  IC50: 2.5 µM
Second compound 1 µM
  IC50: 1.61 µM
Second compound 3.16 µM
  IC50: < 0.0316 µM
Second compound 10 µM
  IC50: < 0.0316 µM
[1]
  viability, T/C: 106%
[2]
  viability, T/C: 97.4%
[3]
  viability, T/C: 99.6%
[4]
  viability, T/C: 89.8%
[5]
  viability, T/C: 27.4%
[6]
  viability, T/C: 3.87%
[7]
  viability, T/C: 90.7%
[8]
  viability, T/C: 94.5%
[9]
  viability, T/C: 86.7%
[10]
  viability, T/C: 81.3%
[11]
  viability, T/C: 42%
[12]
  viability, T/C: 4.06%
[13]
  viability, T/C: 95.4%
[14]
  viability, T/C: 106%
[15]
  viability, T/C: 93.3%
[16]
  viability, T/C: 77.4%
[17]
  viability, T/C: 11.2%
[18]
  viability, T/C: 3.35%
[19]
  viability, T/C: 25.9%
[20]
  viability, T/C: 51%
[21]
  viability, T/C: 58%
[22]
  viability, T/C: 24.2%
[23]
  viability, T/C: 0.16%
[24]
  viability, T/C: 0.12%
[25]
  viability, T/C: 0.09%
[26]
  viability, T/C: 0.11%
[27]
  viability, T/C: 0.08%
[28]
  viability, T/C: 0.06%
[29]
  viability, T/C: 0.06%
[30]
  viability, T/C: 0.09%
